According to patent publication US20030032824A1, “Meiosis regulating compounds” (priority 1996, published 2003):

Experiments:
naked oocytes (NO) [1] = assay: Oocyte test, activation of meiosis in naked oocytes (NO) cultured in Hx-medium; assay type: cell-based, mice
Method: (§1) Oocytes were obtained from immature female mice (C57BI/6J×DBA/2J F1-hybrids, Bomholtgaard, Denmark) weighing 13-16 grams, that were kept under controlled lighting and temperature. The mice received an intra-peritoneal injection of 0.2 ml gonadotropins (Gonal-F, Serono, Solna, Sweden, containing 20 IU FSH, alternatively, Puregon, Organon, Swords, Ireland containing 20 IU FSH) and 48 hours later the animals were killed by cervical dislocation.
(§2) The ovaries were dissected out and the oocytes were isolated in Hx-medium (see below) under a stereo microscope by manual rupture of the follicles using a pair of 27 gauge needles. Spherical oocytes displaying an intact germinal vesicle (GV) were divided in cumulus enclosed oocytes (CEO) and naked oocytes (NO) and placed in α-minimum essential medium (α-MEM without ribonucleosides, Gibco BRL, Cat. No. 22561) supplemented with 3 mM hypoxanthine (Sigma Cat. No. H-9377), 8 mg/ml Human Serum Albumin (HSA, State Serum Institute, Denmark), 0.23 mM pyruvate (Sigma, Cat. No S-8636), 2 mM glutamine (Flow Cat. No. 16-801), 100 IU/mi penicillin and 100 μg/ml streptomycin (Flow, Cat No. 16-700). This medium was designated Hx-medium.
(§3) The oocytes were rinsed three times in Hx-medium and oocytes of uniform size were divided into groups of CEO and NO. CEO and NO were cultured in 4-well multidishes (Nunclon, Denmark) in which each well contained 0.4 ml of Hx-medium and 35-45 oocytes. […]
(§4) By the end of the culture period, the number of oocytes with germinal vesicle (GV) or germinal vesicle breakdown (GVB) and those with polar body (PB) was counted using a stereo microscope or an inverted microscope with differential interference contrast equipment. The percentage of oocytes with GVB per total number of oocytes and the percentage of oocytes with PB per total number of oocytes was calculated in the test cultures and compared to the control culture.

[2] = tested on: cumulus enclosed oocytes (CEO); assay: Oocyte test, activation of meiosis in cumulus enclosed oocytes (CEO) cultured in Hx-medium; assay type: cell-based, mice
Method: as §1, §2, §3, §4

naked oocytes (NO) [3] = assay: Oocyte test, inhibition of FF-MAS induced meiosis in naked oocytes (NO); assay type: cell-based, mice
Method: as §2
(§5) The cultures were performed at 37° C. and 100% humidity with 5% CO2 in air. The culture time was 22-24 hours.
as §4
(§6) Germinal vesicle (GV) oocytes were obtained from immature FSH treated female mice using the same methods as described in Example 1 (see above). The oocytes were rinsed three times in Hx-medium and oocytes of uniform size were divided into groups of CEO and NO. […] CEO and NO were cultured in Hx-medium supplemented with 0.7-7.0 μM FF-MAS in co-culture with the test compounds in different concentrations in 4-well multidishes (Nunclon, Denmark) in which each well contained 0.4 ml of Hx-medium and 35-45 oocytes. One control (i.e., 35-45 oocytes cultured in Hx-medium containing FF-MAS with no addition of test compound) was always run simultaneously with the test cultures, which were supplemented with different concentrations of the compounds to be tested.

[4] = tested on: cumulus enclosed oocytes (CEO); assay: Oocyte test, inhibition of FF-MAS induced meiosis in cumulus enclosed oocytes (CEO); assay type: cell-based, mice
Method: as §2, §5, §4, §6

CEO and NO = CEO and NO in vitro, previously shown; cited from earlier work
[5] = NO, test concentration 7.0 μM, culture 22-24 hours
[6] = CEO, test concentration 7.0 μM, culture 22-24 hours
[7] = FF-MAS 0.7 μM alone (control, no 22R)
[8] = FF-MAS 1.2 μM alone (control, no 22R)
[9] = FF-MAS 7 μM alone (control, no 22R)
[10] = FF-MAS 0.7 μM + 22R 13 μM (ratio 1:19)
[11] = FF-MAS 0.7 μM + 22R 25 μM (ratio 1:36)
[12] = FF-MAS 1.2 μM + 22R 25 μM (ratio 1:20)
[13] = FF-MAS 7 μM + 22R 12.5 μM (ratio 1:2)

CC(C)CCC[C@@H](C)[C@H]1CC[C@H]2[C@@H]3CC=C4[C@@H](O)[C@@H](O)CC[C@]4(C)[C@H]3CC[C@]12C [cholest-5-en-3β,4β-diol]
% GVB (naked oocytes (NO) [1]; [5]): 50.2%
% PB (naked oocytes (NO) [1]; [5]): 17.2%
induction of meiosis (naked oocytes (NO) [1]; naked oocyte cultured in vitro): induces meiosis
% GVB [2, 6]: 44.4%
% PB [2, 6]: 25.9%
induction of meiosis ([2]; cumulus enclosed oocyte cultured in vitro): induces meiosis

CC(C)=CCC[C@@H](C)[C@H]1CC=C2C3=C(CC[C@@]21C)[C@@]1(C)CC[C@H](O)C(C)(C)C1CC3 (stereo partly drawn) [FF-MAS, 4,4-Dimethylcholest-8,14,24-trien-3β-ol, reference compound]
% GVB (naked oocytes (NO) [3]; [7]): 33.0%
% PB (naked oocytes (NO) [3]; [7]): 7.8%
% GVB (naked oocytes (NO) [3]; [8]): 19.5%
% PB (naked oocytes (NO) [3]; [8]): 9.5%
% GVB [4, 7]: 21.7%
% PB [4, 7]: 10.8%
% GVB [4, 9]: 39.0%
% PB [4, 9]: 18.9%
induction of meiosis (CEO and NO): induce meiosis in CEO and NO in vitro

CC(C)CC[C@@H](O)[C@@H](C)[C@H]1CC[C@H]2[C@@H]3CC=C4C[C@@H](O)CC[C@]4(C)[C@H]3CC[C@]12C [Example 22R, cholest-5-en-3β,(22R)-diol]
% GVB (naked oocytes (NO) [3]; [10]): 16.9%
% PB (naked oocytes (NO) [3]; [10]): 0%
% GVB (naked oocytes (NO) [3]; [11]): 2.9%
% PB (naked oocytes (NO) [3]; [11]): 0%
% GVB (naked oocytes (NO) [3]; [12]): 4.6%
% PB (naked oocytes (NO) [3]; [12]): 0%
antagonism of FF-MAS induced resumption of meiosis (naked oocytes (NO) [3]; co-culture with FF-MAS): antagonises the FF-MAS induced resumption of meiosis in a dose-related manner
% GVB [4, 11]: 6.9%
% PB [4, 11]: 3.4%
% GVB [4, 13]: 21%
% PB [4, 13]: 3.5%
antagonism of FF-MAS induced resumption of meiosis ([4]; co-culture with FF-MAS): antagonises the FF-MAS induced resumption of meiosis in a dose-related manner
